Data: patent publication US11760744B2, “Fused ring compounds” (Genentech, Inc., priority 2018, dated 2023)
pEC50, pIC50: −log10 of the molar value.

Experiments:
K-Ras G12C [1] = target: T1, K-Ras G12C (Homo sapiens, UniProt P01116, G12C); assay: Western blot assay for in cell alkylation of K-Ras G12C (HCC1171 cells); type: cell-based; design: endogenous in cells; host or cells: HCC1171; details: 18 hours at 37° C., 7 point dose response
Summary of the method: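 HCC1171 cells exposed to compounds for 18 h at 37° C, lysed, and analysed by SDS-PAGE/western blot with anti-K-Ras antibody and fluorescent secondary. Alkylated K-Ras separated by band shift; % alkylation = FI(alkylated)/(FI(alkylated)+FI(unalkylated))×100, IC50 from 7-point dose response.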
Target sequence in this assay (P01116 1-188 isoform P01116-2 G12C): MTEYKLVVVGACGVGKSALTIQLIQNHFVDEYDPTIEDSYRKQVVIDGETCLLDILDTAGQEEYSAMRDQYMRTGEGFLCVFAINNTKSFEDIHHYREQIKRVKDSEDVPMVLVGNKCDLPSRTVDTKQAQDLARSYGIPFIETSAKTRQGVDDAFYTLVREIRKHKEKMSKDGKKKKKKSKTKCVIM

K-Ras G12C [2] = target: T1, K-Ras G12C; assay: K-Ras G12C, SOS1, Raf RBD HTRF assay for inhibition of GTP exchange; type: biochemical; design: K-Ras G12C (residues 2-188) and SOS1 (residues 564-1049) had N-terminal 6-His; made in house; host or cells: E. coli; details: 18 hours preincubation with K-Ras G12C at room temperature; SOS1-mediated GTP exchange
Summary of the method: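 After 18 h at room temperature with compound, SOS1 (1.25 nM final) started exchange to GTP (150 μM final). C-Raf RBD, Tb-anti-FLAG and D2-anti-his (50, 1 and 12.5 nM) were then added. The 665/615 nm HTRF ratio was read after 2 h; buffer was HEPES/NaCl, 1 mM MgCl2, BSA, Tween-20 and DTT.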
Target sequence in this assay (P01116 2-188 isoform P01116-2 G12C): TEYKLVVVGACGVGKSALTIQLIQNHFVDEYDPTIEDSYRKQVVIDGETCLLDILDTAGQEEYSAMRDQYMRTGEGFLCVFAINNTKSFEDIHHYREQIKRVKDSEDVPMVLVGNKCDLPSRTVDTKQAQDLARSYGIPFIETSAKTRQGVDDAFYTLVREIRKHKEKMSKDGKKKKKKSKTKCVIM

[3] = Whole blood stability assay; type: in vitro ADME; details: fresh whole blood, drug 1 μM, 37° C., 180 minutes incubation
Procedure: Whole Blood Stability Assay A whole blood stability assay was performed using fresh blood with a drug final concentration of 1 μM. The drug-blood mixtures were incubated at 37° C. for 180 minutes.

[4] = target: T2, K-Ras G12C mutant protein (Homo sapiens, UniProt P01116, G12C); assay: K-Ras G12C HTRF assay; type: biochemical; details: Table 1; unit or assay not given; several values in one cell
T2 construct: K-Ras G12C (residues 2-188) and SOS1 (residues 564-1049) had N-terminal 6-His; made in house; host or cells: E. coli
T2 sequence (P01116 2-188 isoform P01116-2 G12C): as above
Procedure: In the above definition of R^2, the electrophilic moiety that is capable of forming a covalent bond with a cysteine residue is determined via K-Ras G12C-alkylation studies and Homogeneous Time Resolved Fluorescence (HTRF) assays. The G12C mutation of the K-Ras gene is a change in amino acid from glycine to cysteine at the 12th amino acid. The compounds according to the present disclosure were discovered using the HTRF assay and the K-Ras G12C-alkylation assay, as further detailed elsewhere herein below, and then NMR spectroscopy was later used to validate the specificity with which the molecule was attaching to G12C.

SMILES: C=CC(=O)N1CCN(c2nc(OC[C@@H]3CCCN3C)nc3c2C[C@@H](C)[C@H](c2nc(N)cc(C)c2C(F)(F)F)C3)[C@@H](C)C1 (single isomer, unassigned) [Example 21b]
- pEC50 (K-Ras G12C [1]): 8.22
- pIC50 (K-Ras G12C [2]): > 8.00
- half-life at 1 μM [3]: > 9 h

SMILES: C=CC(=O)N1CCN(c2ncnc3c2CCC(c2c(C)ccc4cn[nH]c24)C3)CC1 (stereo not shown) [Example 17, 1-[4-[7-(6-methyl-1H-indazol-7-yl)-5,6,7,8-tetrahydroquinazolin-4-yl]piperazin-1-yl]prop-2-en-1-one]
- pIC50 [4]: 6.15
- pEC50 (K-Ras G12C [1]): 5.17
- pIC50 (K-Ras G12C [2]): 6.15

SMILES: C=C(F)C(=O)N1CCN(c2nc(OC[C@@H]3CCCN3C)nc3c2C[C@@H](C)[C@H](c2c(F)c(N)cc(C)c2C(F)(F)F)C3)C[C@@H]1CC#N (single isomer, unassigned) [Example 34c]
- pEC50 (K-Ras G12C [1]): 7.85
- pIC50 (K-Ras G12C [2]): > 8.00
- half-life at 1 μM [3]: > 9 h

SMILES: C=CC(=O)N1CCN(c2ncnc3c2CCC(c2c(C)ccc4[nH]ncc24)C3)CC1 (racemic) [Example 2, 1-(4-(7-(5-methyl-1H-indazol-4-yl)-5,6,7,8-tetrahydroquinazolin-4-yl)piperazin-1-yl)prop-2-en-1-one]
- pIC50 [4]: 6.08
- pEC50 (K-Ras G12C [1]): 5.21
- pIC50 (K-Ras G12C [2]): 6.08

SMILES: C=CC(=O)N1CCN(c2nc(OC[C@@H]3CCCN3C)nc3c2C[C@@H](C)[C@H](c2c(F)c(N)cc(C)c2C(F)(F)F)C3)[C@@H](C)C1 (single isomer, unassigned) [Example 12b]
- pEC50 (K-Ras G12C [1]): 8.48
- pIC50 (K-Ras G12C [2]): > 8.00
- half-life at 1 μM [3]: > 9 h

SMILES: C=CC(=O)N1CCN(c2nc(OC[C@@H]3CCCN3C)nc3c2C[C@@H](C)[C@H](c2nc(N)cc(C)c2C(F)(F)F)C3)CC1 (single isomer, unassigned) [Example 20a]
- pEC50 (K-Ras G12C [1]): 7.85
- pIC50 (K-Ras G12C [2]): > 8.00
- half-life at 1 μM [3]: 3.83 h

SMILES: C=CC(=O)N1CCN(c2ncnc3c2CC(C(C)C)C(c2cc(O)cc4ccccc24)C3)CC1 (stereo not shown) [Example 16, 1-(4-(7-(3-hydroxynaphthalen-1-yl)-6-isopropyl-5,6,7,8-tetrahydroquinazolin-4-yl)piperazin-1-yl)prop-2-en-1-one]
- pIC50 [4]: 6.92
- pEC50 (K-Ras G12C [1]): 5.92
- pIC50 (K-Ras G12C [2]): 6.92

SMILES: C=CC(=O)N1CC2(CCN(c3nc(OCC4CCCN4C)nc4c3CCC(c3cc(O)cc5ccccc35)C4)CC2)C1 (stereo not shown) [Example 51, 1-[7-[7-(3-hydroxy-1-naphthyl)-2-[(1-methylpyrrolidin-2-yl)methoxy]-5,6,7,8-tetrahydroquinazolin-4-yl]-2,7-diazaspiro[3.5]nonan-2-yl]prop-2-en-1-one]
- pIC50 [4]: 7.34
- pEC50 (K-Ras G12C [1]): 6.48
- pIC50 (K-Ras G12C [2]): 7.34

SMILES: C=CC(=O)N1CCN(c2nc(OC[C@@H]3C[C@@H](F)CN3C)nc3c2C[C@@H](CC)[C@H](c2c(F)c(N)cc(C)c2C(F)(F)F)C3)[C@@H](C)C1 (single isomer, unassigned) [Example 37a]
- pEC50 (K-Ras G12C [1]): 8.35
- pIC50 (K-Ras G12C [2]): > 8.00
- half-life at 1 μM [3]: > 9 h

SMILES: C=C(F)C(=O)N1CCN(c2nc(OC[C@@H]3C[C@@H](F)CN3C)nc3c2C[C@@H](C)[C@H](c2c(F)c(N)cc(C)c2C(F)(F)F)C3)C[C@@H]1CC#N (single isomer, unassigned) [Example 38b]
- pEC50 (K-Ras G12C [1]): 8.49
- pIC50 (K-Ras G12C [2]): > 8.00
- half-life at 1 μM [3]: > 9 h

SMILES: C=CC(=O)N1CCN(c2nc(OC[C@@H]3CCCN3C)nc3c2C[C@@H](C)[C@H](c2c(C(F)(F)F)ccc(N)c2F)C3)[C@@H](C)C1 (single isomer, unassigned) [Example 23b]
- pEC50 (K-Ras G12C [1]): 8.18
- pIC50 (K-Ras G12C [2]): > 8.00
- half-life at 1 μM [3]: 4.67 h

SMILES: C=C(F)C(=O)N1CCN(c2nc(OC[C@@H]3CCCN3C)nc3c2CC(C)C(c2c(F)c(N)cc(C)c2C(F)(F)F)C3)CC1CC#N (single isomer, unassigned) [Example 34d]
- pEC50 (K-Ras G12C [1]): 8.17
- pIC50 (K-Ras G12C [2]): > 8.00
- half-life at 1 μM [3]: > 9 h

SMILES: C=CC(=O)N1CCN(c2nc(OC[C@@H]3CCCN3C)nc3c2C[C@@H](C)[C@H](c2cccc4c2CCC4)C3)C[C@H]1CC#N (single isomer, unassigned) [Example 35b]
- pEC50 (K-Ras G12C [1]): 7.77
- pIC50 (K-Ras G12C [2]): 7.96
- half-life at 1 μM [3]: 1.52 h

SMILES: CN(C)C/C=C/C(=O)Nc1cc2c(Nc3ccc(F)c(Cl)c3)ncnc2cc1O[C@H]1CCOC1 [Afatinib, reference compound]
- half-life at 1 μM [3]: 1.25 h

SMILES: C=CC(=O)N1CCN(c2ncnc3c2CC(C)C(c2cc(O)cc4ccccc24)C3)CC1 (stereo not shown) [Example 39, 1-(4-(7-(3-hydroxynaphthalen-1-yl)-6-methyl-5,6,7,8-tetrahydroquinazolin-4-yl)piperazin-1-yl)prop-2-en-1-one]
- pIC50 [4]: 6.74
- pEC50 (K-Ras G12C [1]): 6.14
- pIC50 (K-Ras G12C [2]): 6.74

SMILES: C=CC(=O)N1CCN(c2nc(OC[C@@H]3CCCN3C)nc3c2C[C@@H](C)[C@H](c2cc(O)cc4ccccc24)C3)[C@@H](C)C1 (single isomer, unassigned) [Example 22b]
- pEC50 (K-Ras G12C [1]): 8.21
- pIC50 (K-Ras G12C [2]): > 8.00
- half-life at 1 μM [3]: > 9 h

SMILES: C=CC(=O)N1CCN(c2nc(OC[C@@H]3CCCN3C)nc3c2CC[C@H](c2cc(O)cc4ccccc24)C3)[C@@H](C)C1 (single isomer, unassigned) [Example 28b]
- pEC50 (K-Ras G12C [1]): 7.64
- pIC50 (K-Ras G12C [2]): > 8.00
- half-life at 1 μM [3]: 7 h

SMILES: C=CC(=O)N1CCN(c2nc(OC[C@@H]3C[C@@H](F)CN3C)nc3c2C[C@@H](C)[C@H](c2c(F)c(N)cc(C)c2C(F)(F)F)C3)[C@@H](C)C1 (single isomer, unassigned) [Example 36b]
- pEC50 (K-Ras G12C [1]): 8.22
- pIC50 (K-Ras G12C [2]): > 8.00
- half-life at 1 μM [3]: > 9 h

SMILES: C=C(F)C(=O)N1CCN(c2nc(OC[C@@H]3C[C@@H](F)CN3C)nc3c2C[C@@H](C)[C@H](c2c(F)c(N)cc(C)c2C(F)(F)F)C3)C[C@H]1CC#N (single isomer, unassigned) [Example 38c]
- pEC50 (K-Ras G12C [1]): 7.62
- pIC50 (K-Ras G12C [2]): 7.82
- half-life at 1 μM [3]: 2.33 h

SMILES: C=CC(=O)N1CCN(c2nc(OCC3CCCN3C)nc3c2CCC(c2cc(O)cc4ccccc24)C3)C(CC#N)C1 (stereo not shown) [Example 60, 2-(4-acryloyl-1-(7-(3-hydroxynaphthalen-1-yl)-2-((1-methylpyrrolidin-2-yl)methoxy)-5,6,7,8-tetrahydroquinazolin-4-yl)piperazin-2-yl)acetonitrile]
- pIC50 [4]: 7.59
- pEC50 (K-Ras G12C [1]): 5.89
- pIC50 (K-Ras G12C [2]): 7.59

SMILES: C=CC(=O)N1CCN(c2nc(OC[C@@H]3C[C@@H](F)CN3C)nc3c2CC[C@H](c2cc(O)cc4ccccc24)C3)[C@@H](C)C1 (single isomer, unassigned) [Example 31a]
- pEC50 (K-Ras G12C [1]): 7.89
- pIC50 (K-Ras G12C [2]): > 8.00
- half-life at 1 μM [3]: 6.83 h

SMILES: C=CC(=O)N1CCN(c2nc(OC[C@@H]3CCCN3C)nc3c2C[C@@H](C)[C@H](c2nc(N)ccc2C(F)(F)F)C3)[C@@H](C)C1 (single isomer, unassigned) [Example 41b]
- pEC50 (K-Ras G12C [1]): 8.09
- pIC50 (K-Ras G12C [2]): > 8.00
- half-life at 1 μM [3]: 3.33 h

SMILES: C=CC(=O)N1CCN(c2nc(OC[C@@H]3CCCN3C)nc3c2C[C@@H](C)[C@H](c2cccc4c2CCC4)C3)C[C@@H]1CC#N (single isomer, unassigned) [Example 35d]
- pEC50 (K-Ras G12C [1]): 9.01
- pIC50 (K-Ras G12C [2]): > 8.00
- half-life at 1 μM [3]: 1.45 h
